# What was measured:
# MCF7 [1] = experiment: Induction of apoptosis in human MCF7 cells assessed as early apoptotic cells at 2.5 uM incubated for 24 hrs Annexin FITC/PI staining based flow cytometry analysis (reference value: 0.87%); type: functional
# MCF7 [2] = experiment: Induction of apoptosis in human MCF7 cells assessed as late apoptotic cells at 2.5 uM incubated for 24 hrs Annexin FITC/PI staining based flow cytometry analysis (reference value: 5.84%); type: functional
# MCF7 [3] = experiment: Induction of apoptosis in human MCF7 cells assessed as necrotic cells at 2.5 uM incubated for 24 hrs Annexin FITC/PI staining based flow cytometry analysis (reference value: 1.33%); type: functional
# MCF7 [4] = experiment: Induction of apoptosis in human MCF7 cells assessed as early apoptotic cells at 5 uM incubated for 24 hrs Annexin FITC/PI staining based flow cytometry analysis (reference value: 0.87%); type: functional
# MCF7 [5] = experiment: Induction of apoptosis in human MCF7 cells assessed as late apoptotic cells at 5 uM incubated for 24 hrs Annexin FITC/PI staining based flow cytometry analysis (reference value: 5.84%); type: functional
# MCF7 [6] = experiment: Induction of apoptosis in human MCF7 cells assessed as necrotic cells at 5 uM incubated for 24 hrs Annexin FITC/PI staining based flow cytometry analysis (reference value: 1.33%); type: functional
# MCF7 [7] = experiment: Induction of apoptosis in human MCF7 cells assessed as early apoptotic cells at 10 uM incubated for 24 hrs Annexin FITC/PI staining based flow cytometry analysis (reference value: 0.87%); type: functional
# MCF7 [8] = experiment: Induction of apoptosis in human MCF7 cells assessed as late apoptotic cells at 10 uM incubated for 24 hrs Annexin FITC/PI staining based flow cytometry analysis (reference value: 5.84%); type: functional
# MCF7 [9] = experiment: Induction of apoptosis in human MCF7 cells assessed as necrotic cells at 10 uM incubated for 24 hrs Annexin FITC/PI staining based flow cytometry analysis (reference value: 1.33%); type: functional
# MCF7 [10] = experiment: Antitumor activity against human MCF7 cells xenografted in BALB/c mouse assessed as tumor size at 20 mg/kg, iv measured every 2 days for 19 days (reference value: 1178 +/- 246mm3); type: functional; details: time 19 day
# MCF7 [11] = experiment: Antitumor activity against human MCF7 cells xenografted in BALB/c mouse assessed as tumor size at 20 mg/kg, iv administered as lipodisc encapsulated form measured every 2 days for 19 days (reference value: 1178 +/- 246mm3); type: functional; details: time 19 day
# MCF7 [12] = experiment: Antitumor activity against human MCF7 cells xenografted in BALB/c mouse assessed as tumor growth inhibition at 20 mg/kg, iv measured every 2 days for 19 days; type: functional; details: MCF7, 456 h, time 19 day, read-out: TGI
# MCF7 [13] = experiment: Antitumor activity against human MCF7 cells xenografted in BALB/c mouse assessed as tumor growth inhibition at 20 mg/kg, iv administered as lipodisc encapsulated form measured every 2 days for 19 days; type: functional; details: MCF7, 456 h, time 19 day, read-out: TGI
# MCF7 [14] = details: dose 20 mg/kg; route iv; time 19 day
# MCF7 [15] = details: dose 20 mg/kg; route iv; time 19 day; remark: listed apart in the source
# MCF7 [16] = experiment: cells; details: Homo sapiens, MCF7, 24 h, read-out: Activity
# MCF7 [17] = experiment: cells; details: Homo sapiens, MCF7, 24 h, read-out: Activity; remark: listed apart in the source
# MCF7 [18] = experiment: cells; details: Homo sapiens, MCF7, 24 h, read-out: Activity; remark: listed apart in the source
# in vivo [19] = details: BALB/c, mouse, iv, 5 mg/kg
# in vivo [20] = details: BALB/c, mouse, iv, 5 mg/kg; remark: listed apart in the source
# in vivo [21] = details: BALB/c, mouse, iv, 5 mg/kg; remark: listed apart in the source
# in vivo [22] = details: BALB/c, mouse, iv, 5 mg/kg; remark: listed apart in the source
# in vivo [23] = details: BALB/c, mouse, iv, 5 mg/kg; remark: listed apart in the source
# in vivo [24] = details: BALB/c, mouse, iv, 5 mg/kg; remark: listed apart in the source
# in vivo [25] = details: BALB/c, mouse, iv, 5 mg/kg; remark: listed apart in the source
# in vivo [26] = details: BALB/c, mouse, iv, 5 mg/kg; remark: listed apart in the source
# in vivo [27] = details: BALB/c, mouse, iv
# in vivo [28] = details: BALB/c, mouse, iv; remark: listed apart in the source
smiles,measurement,setting,value
CN(C)C1CCN(C(=O)c2ccc(NC(=O)Nc3ccc(-c4nc(N5CCOCC5)nc(N5CCOCC5)n4)cc3)cc2)CC1 [GEDATOLISIB],Activity,MCF7 [1],0.68%
same,Activity,MCF7 [2],7.35%
same,Activity,MCF7 [3],1.59%
same,Activity,MCF7 [4],0.64%
same,Activity,MCF7 [5],8.41%
same,Activity,MCF7 [6],1.95%
same,Activity,MCF7 [7],0.82%
same,Activity,MCF7 [8],11.9%
same,Activity,MCF7 [9],1.77%
same,Activity,MCF7 [10],591 mm3
same,Activity,MCF7 [11],559 mm3
same,inhibition in vivo at 20 mg/kg,MCF7 [12],53.3%
same,inhibition in vivo at 20 mg/kg,MCF7 [13],55.9%
same,T/C,MCF7 [14],46.7%
same,T/C,MCF7 [15],44.1%
same,viability at 2.5 µM,MCF7 [16],90.4%
same,viability at 5 µM,MCF7 [17],89%
same,viability at 10 µM,MCF7 [18],85.5%
same,AUC(0-t) at 12 h,in vivo [19],5280 ng·h/mL
same,AUC(0-t) at 12 h,in vivo [20],31500 ng·h/mL
same,AUC(0-inf) at 12 h,in vivo [21],5640 ng·h/mL
same,AUC(0-inf) at 12 h,in vivo [22],32100 ng·h/mL
same,half-life at 12 h,in vivo [23],1.3 h
same,half-life at 12 h,in vivo [24],7.4 h
same,Cmax at 12 h,in vivo [25],10700 ng/mL
same,Cmax at 12 h,in vivo [26],44000 ng/mL
same,MTD at […],in vivo [27],20 mg/kg
same,MTD at […],in vivo [28],30 mg/kg

# From ChEMBL document CHEMBL5543164 (J Med Chem, 2024)
